Assay results reported in publication PMC9226319, “Peripherally restricted transthyretin-based delivery system for probes and therapeutics avoiding opioid-related side effects” (Nature Communications, 2022).
Values joined by “and” are separate entries in the source; they are usually repeats but may differ in a detail not shown here. Equal values may be shown once.

Key:
purified human TTR = purified human TTR (Homo sapiens, UniProt P02766); assay: Fluorescence polarization (FP) binding assay, ligands to TTR in buffer
[1] = biological target: human mu-opioid receptors (Homo sapiens, UniProt P35372); assay: biochemical; type: binding
TTR in human serum = TTR in human serum (Homo sapiens, UniProt P02766); assay: TTR serum fluorescent probe exclusion (FPE) selectivity assay; type: binding; conditions: ligand 10 µM; for %FPE probe fluorescence: human serum, replicates

Sequence of human mu-opioid receptors (P35372 whole entry): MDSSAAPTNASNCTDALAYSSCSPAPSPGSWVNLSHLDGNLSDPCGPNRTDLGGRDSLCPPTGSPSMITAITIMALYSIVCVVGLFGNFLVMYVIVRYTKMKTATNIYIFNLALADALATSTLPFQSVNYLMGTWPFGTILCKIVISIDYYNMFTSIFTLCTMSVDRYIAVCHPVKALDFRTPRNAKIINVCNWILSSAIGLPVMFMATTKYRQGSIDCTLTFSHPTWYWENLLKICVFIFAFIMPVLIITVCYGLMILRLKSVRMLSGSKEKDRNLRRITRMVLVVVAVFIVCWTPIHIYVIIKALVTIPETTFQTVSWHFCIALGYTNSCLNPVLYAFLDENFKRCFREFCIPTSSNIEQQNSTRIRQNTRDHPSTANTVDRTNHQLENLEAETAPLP

C=CCN1CC[C@]23c4c5ccc(O)c4O[C@H]2[C@@H](OCc2cn(CCOCCOCCNCCCCCCOc4cc(OCCCc6c(C)n[nH]c6C)cc(C(=O)O)c4)nn2)CC[C@@]3(O)[C@H]1C5 [AG10-L1-Nal]
Kd (purified human TTR): 485 nM
% Fluorescence polarization (mean) (purified human TTR; log [nM] inhibitor 0.990): 100.000%
% Fluorescence polarization (mean) (purified human TTR; log [nM] inhibitor 1.291): 101.730%
% Fluorescence polarization (mean) (purified human TTR; log [nM] inhibitor 1.592): 105.820%
% Fluorescence polarization (mean) (purified human TTR; log [nM] inhibitor 1.893): 101.210%
% Fluorescence polarization (mean) (purified human TTR; log [nM] inhibitor 2.194): 93.370%
% Fluorescence polarization (mean) (purified human TTR; log [nM] inhibitor 2.495): 87.150%
% Fluorescence polarization (mean) (purified human TTR; log [nM] inhibitor 2.796): 78.760%
% Fluorescence polarization (mean) (purified human TTR; log [nM] inhibitor 3.097): 63.020%
% Fluorescence polarization (mean) (purified human TTR; log [nM] inhibitor 3.398): 50.120%
% Fluorescence polarization (mean) (purified human TTR; log [nM] inhibitor 3.699): 44.570%
% Fluorescence polarization (mean) (purified human TTR; log [nM] inhibitor 4.000): 22.560%
% Fluorescence polarization (mean) (purified human TTR; log [nM] inhibitor […]): 0.000%
fold decrease in mu-opioid receptor binding affinity when TTR was present [1]: 9 fold
fold higher mu-opioid receptor binding affinity than naloxegol [1]: 3.5 fold
fold lower mu-opioid receptor binding affinity than naloxone [1]: 3 fold
Ki ([1]; binding affinity to mu-opioid receptor (Ki)): 0.81 nM
Ki ([1]; binding affinity to mu-opioid receptor (Ki) in the presence of TTR): 7.4 nM
% TTR occupancy in human serum (TTR in human serum; FPE probe 3.6 µM, 3 h reading relative to probe alone, text mean ± s.d., table replicates): 71.5 ± 1.8% and 70.26% and 71.49% and 74.04% and 70.09%
%FPE probe fluorescence (TTR in human serum; time 0.000 h): 0.000%
%FPE probe fluorescence (TTR in human serum; time 0.083 h): 1.080% and 0.767% and -1.456% and -0.892%
%FPE probe fluorescence (TTR in human serum; time 0.250 h): 2.570% and 0.301% and -1.690% and -0.400%
%FPE probe fluorescence (TTR in human serum; time 0.500 h): 1.410% and 3.016% and 1.843% and 4.013%
%FPE probe fluorescence (TTR in human serum; time 1.000 h): 5.261% and 6.236% and 4.568% and 2.982%
%FPE probe fluorescence (TTR in human serum; time 1.250 h): 9.024% and 8.732% and 5.446% and 7.822%
%FPE probe fluorescence (TTR in human serum; time 1.500 h): 10.681% and 11.389% and 3.787% and 9.124%
%FPE probe fluorescence (TTR in human serum; time 1.750 h): 16.590% and 14.034% and 12.392% and 15.982%
%FPE probe fluorescence (TTR in human serum; time 2.000 h): 16.797% and 16.410% and 12.993% and 18.679%
%FPE probe fluorescence (TTR in human serum; time 2.250 h): 24.164% and 18.098% and 17.162% and 21.660%
%FPE probe fluorescence (TTR in human serum; time 2.500 h): 24.735% and 22.591% and 22.580% and 23.970%
%FPE probe fluorescence (TTR in human serum; time 2.750 h): 27.729% and 25.808% and 22.823% and 27.770%
%FPE probe fluorescence (TTR in human serum; time 3.000 h): 29.742% and 28.511% and 25.959% and 29.908%
%FPE probe fluorescence (TTR in human serum; time 3.500 h): 34.408% and 33.995% and 32.949% and 35.412%
%FPE probe fluorescence (TTR in human serum; time 3.750 h): 36.701% and 36.516% and 34.676% and 37.256%
%FPE probe fluorescence (TTR in human serum; time 4.000 h): 39.055% and 39.875% and 38.359% and 40.118%
%FPE probe fluorescence (TTR in human serum; time 4.250 h): 42.939% and 41.758% and 38.579% and 41.416%
%FPE probe fluorescence (TTR in human serum; time 4.500 h): 43.175% and 42.158% and 39.564% and 43.974%
%FPE probe fluorescence (TTR in human serum; time 4.750 h): 49.116% and 47.668% and 46.875% and 46.250%
%FPE probe fluorescence (TTR in human serum; time 5.000 h): 48.320% and 48.257% and 45.947% and 47.487%
%FPE probe fluorescence (TTR in human serum; time 5.250 h): 49.797% and 50.503% and 44.600% and 50.002%
%FPE probe fluorescence (TTR in human serum; time 5.500 h): 51.668% and 52.681% and 50.017% and 50.897%
%FPE probe fluorescence (TTR in human serum; time 5.750 h): 52.829% and 53.093% and 50.389% and 55.989%
%FPE probe fluorescence (TTR in human serum; time 6.000 h): 53.052% and 53.791% and 49.880% and 55.657%
